Test results taken from patent publication US20110159515A1, “COMPOSITIONS AND METHODS FOR THE RAPID GROWTH AND DETECTION OF MICROORGANISMS” (SOLUS SCIENTIFIC SOLUTIONS LIMITED, priority 2008, published 2011).

Tests used:
S. aberdeen [1] = test: Direct binding Salmonella assay on food cultures; settings: white plate, Lucy 1
Protocol: 25 g of a food sample were added to 225 ml culture medium according to the first aspect of the invention. Alternatively a surface swab may be taken from a 10×10 cm area on a carcass and cultured in 2-5 ml culture medium according to the first aspect of the invention. Specifically the culture medium comprised 1% peptone, 8 g/L sodium tetrathionate and 0.15 mg/L brilliant green. […]
The sample was heated to 100° C. for 5 minutes and allowed to cool. One hundred microlitres of each test sample was added directly to a well of a solid white 96 well high binding microtitre plate (Greiner Bio One) and incubated at 37° C. for 30 minutes. During incubation, the lipid A portion of the LPS binds to the surface of the plate via non-covalent hydrophobic interactions (FIG. 1a (1), FIG. 1b(1)). Following incubation the plate was emptied and the wells washed three times with a wash buffer comprising 0.01M sodium phosphate buffer, pH 7.4, containing 0.147M NaCl and 0.05 (v/v) Tween 20.
White Plate read on Lucy 1 luminometer

S. aberdeen [2] = test: Direct binding Salmonella assay (chemiluminescence immunosorbent)
Protocol: After 5 hours of culture, a 2 ml aliquot of the sample was removed and SDS was added to a final concentration of 0.5% (w/v). The sample was heated to 100° C. for 5 minutes and allowed to cool. One hundred microlitres of each test sample was added directly to a well of a solid white 96 well high binding microtitre plate (Greiner Bio One) and incubated at 37° C. for 30 minutes. During incubation, the lipid A portion of the LPS binds to the surface of the plate via non-covalent hydrophobic interactions (FIG. 1a (1), FIG. 1b(1)).
The final concentration of antibody per well was 50 ng. The plate-bound sample (Salmonella LPS/core oligosaccharide) and antibody were incubated in the coated wells for 30 minutes as 37° C. Following incubation, plates were washed three times in wash buffer and pat dried prior to detection (FIG. 1a(2), FIG. 1b(2)).
When the anti-Salmonella is directly labelled with acridinium ester, plates were placed into a luminometer. 30 μl of trigger solution A and 60 μl of trigger solution B was added to each well of the microtitre plate to initiate light output from conjugated acridinium ester (FIG. 1a(3)). The luminometer settings were as follows:
When the anti-Salmonella antibody is not labelled, a second binding member, a goat anti-mouse IgG2b conjugate is used. Post column IgG2b was diluted 1:100 in a diluent comprising 3% (w/v) non-fat milk powder and 0.05% (v/v) Tween 20 and 100 ul of this solution was added to each well of the plate (FIG. 1b(3)). Following incubation at 37° C. for 60 minutes the plate was washed four times in wash buffer, dried and read as above (FIG. 1b(4)).
The wells of an assay plate are coated with standard concentrations of bacteria for 1 hour at 37° C. These standard concentrations are: 10^6, 10^5, 5×10^4, 2.5×10^4, 10^4 and 5×10^3 and blank wells containing 10^6 E. coli. The fractions to be tested are diluted 1:100 in assay buffer and […] is added to each well and incubated at 37° C. for 20 minutes. The wells are then read on the luminometer, as above.

`CCCCCCCCCCCCOS(=O)(=O)[O-].[Na+]` [SDS, sodium dodecyl sulphate] was tested, and the “signal, food culture” value (S. aberdeen [1]; 0.1% SDS, +ve Chicken (10 C.F.U. S. aberdeen, 18 hours)) was 131,488 ± 15,357, the “signal, food culture” value (S. aberdeen [1]; 0.1% SDS, +ve Drinking Chocolate (10 C.F.U. S. aberdeen, 18 hours)) was 45,626 ± 3204 and the “signal, food culture” value (S. aberdeen [1]; 0.1% SDS, +ve Mayonnaise (10 C.F.U. S. aberdeen, 18 hours)) was 746,670 ± 86,449. For the same molecule, the “signal, food culture” value (S. aberdeen [1]; 0.1% SDS, −ve Chicken) was 3426 ± 316, the “signal, food culture” value (S. aberdeen [1]; 0.1% SDS, −ve Drinking Chocolate) was 1315 ± 63 and the “signal, food culture” value (S. aberdeen [1]; 0.1% SDS, −ve Mayonnaise) was 4180 ± 610. For the same molecule, the “signal, food culture” value (S. aberdeen [1]; 0.5% SDS, +ve Chicken (10 C.F.U. S. aberdeen, 18 hours)) was 36,770 ± 2,020, the “signal, food culture” value (S. aberdeen [1]; 0.5% SDS, +ve Drinking Chocolate (10 C.F.U. S. aberdeen, 18 hours)) was 110,756 ± 5737^ and the “signal, food culture” value (S. aberdeen [1]; 0.5% SDS, +ve Mayonnaise (10 C.F.U. S. aberdeen, 18 hours)) was 387,924 ± 106,504. For the same molecule, the “signal, food culture” value (S. aberdeen [1]; 0.5% SDS, −ve Chicken) was 4494 ± 904, the “signal, food culture” value (S. aberdeen [1]; 0.5% SDS, −ve Drinking Chocolate) was 3266 ± 142 and the “signal, food culture” value (S. aberdeen [1]; 0.5% SDS, −ve Mayonnaise) was 3260 ± 733. For the same molecule, the “signal, direct binding Salmonella assay” value (S. aberdeen [2]; 0.5% SDS (second block), conjugate 1:100, 5 × 10^4 S. aberdeen, black and white plates) was 2,213 ± 170, the “signal, release and detection of core oligosaccharide” value (S. aberdeen [2]; 0.5% SDS, 10^4 bacteria (species not given)) was 495603 relative light units and the “enhancement of binding between binding member (antibody) and epitope” value (S. aberdeen [2]; direct assay) was no more than 10 fold.
